Tests used:
[1] = target: T1, NGAL (Homo sapiens, UniProt P80188); experiment: NGAL:siderophore:iron binding assay (retention on 10 kDa filter); details: for NGAL-siderophore-Fe binding activity (in words): iron retention by NGAL on filter
T1 construct: made in house; host or cells: E. coli BL-21
Description: NGAL:Siderophore:Iron Binding Assays. […] After 60 minutes, the mixture was washed 3 times (YM-10) or alternatively gel filtered (PD-10, GE Biosciences). Ent loaded NGAL served as a positive control. Ferric citrate (1 mM) or Ent:iron (500 μM) served as competitors of ^55Fe binding.
After 60 minutes at room temperature, the mixture was then washed 3 times on a 10-kDa membrane (Amicon YM-10; Millipore Corp.). Ngal loaded with iron-free enterochelin (rather than apo-Ngal) served as a positive control for iron capture. Ferric citrate (1 mM) or iron-loaded enterochelin (siderophore:Fe, […]) was used as a competitor of 55Fe binding.

[2] = target: T1, NGAL; experiment: Fluorescence quenching binding assay; details: with iron vs without iron
Description: Fluorescence quenching binding assay. […] The pH was adjusted until the fluorescence signal stopped changing, while fluorescence values were corrected for dilution. […] Control experiments were performed to ensure the stability of the protein at experimental conditions, including the dilution and the addition of DMSO and ubiquitin.

[3] = target: T1, NGAL; experiment: Release of ligands and iron from NGAL complexes by acidification; type: physicochemical; details: fluorescence and 55Fe release
Source text: FIGS. 6A-6C. Release of ligands from NGAL by acidification. […] Fluorescence was quenched by ligand binding. Upon acidification, the ligands were released and fluorescence returned to baseline. Subsequent basification, where relevant, caused rebinding. Note that NGAL:pyrogallol and 2,3-dihydroxybenzoic acid complexes required much lower pH for dissociation. (B) Release of ^55Fe from different NGAL:catecholate complexes by low pH washes on a 10 KDa microcon. For this comparison, the retention of iron at pH7.0 was defined as 100%. […] Data were presented as mean±Std.
To transport iron from plasma to cells there has to be a mechanism for releasing iron from the complex. Intracellular delivery of iron by transferring is known to require passage through acidified endosomes where iron is released. […] While the complex was stable at neutral pH, acidification below pH 7.0 progressively reversed ligand-dependent fluorescence quenching of NGAL and released iron (FIG. 6A, B).
Fluorescence quenching binding assay. […] The pH was adjusted until the fluorescence signal stopped changing, while fluorescence values were corrected for dilution. Data were analyzed by a nonlinear regression analysis using a one-site binding model (Kuzmic, P. (1996). Program DYNAFIT for the analysis of enzyme kinetic data: application to HIV proteinase. Anal. Biochem. 237, 260-273). […]

[4] = Catechol and iron traffic to the kidney in vivo; details: mouse
[5] = Hydroxyl radicals detected by conversion of HPF to fluorescein; type: biochemical; details: catechol, ferric iron and H2O2
Source text: NGAL Blocks Iron Induced Hydroxyl Radicals. […] Hydroxyl radicals were detected by the conversion of HPF to fluorescein (Setsukinai, K., Urano, Y., Kakinuma, K., Majima, H. J., Nagano, T. (2003). Development of Novel Fluorescence Probes That Can Reliably Detect Reactive Oxygen Species and Distinguish Specific Species. J Biol Chem. 278, 170-3175) using […].

[6] = Free catechol stability in solution monitored by NMR; type: physicochemical; details: monitored for 20 hrs by NMR, D2O
Source text: J. Agric Food Chem. 54, 5755-5762; Carmella, S. G., La, V. E. J., Hecht, S. S. (1982). […] Food Chem Toxicol. 20, 587-590) and aromatic amino acids (˜50%; Martin et al., 1982; Carmella et al., 1982; Bakke, O. M. (1969). Urinary simple phenols in rats fed purified and nonpurified diets. J. Nutr. 98, 209-216). […] Using urinary biomarkers to elucidate dose-related patterns of human benzene metabolism. Carcinogenesis 27, 772-781), whereupon they are sulfonated (Rennick, B., Quebbemann, A. (1970). Site of excretion of catechol and catecholamines: renal metabolism of catechol. Am. J. Physiol. 218, 1307-1312).

[7] = Reduction of Fe3+ to Fe2+ detected with phenanthroline; type: biochemical; details: catechols 45 μM, ferric iron 15 μM, NGAL 15 μM

Molecule | NGAL: Chelator: Fe % Retention ([1]; apoNGAL 10 μM, 55Fe, compound 10 μM, pH 7.4, washed on 10 kDa filter) | NGAL-siderophore-Fe binding activity (in words) [1] | NGAL-siderophore-Fe binding activity (in words) ([1]; listed as catechol) | increase in binding affinity for NGAL in the presence of iron [2] | pH at which the NGAL:ligand:iron complex dissociates [3] | clearance of free 14C-catechol by organs [4] | conversion of HPF to fluorescein (hydroxyl radical formation) [5] | stability of free catechol in solution [6] | reduction of ferric iron to ferrous iron (phenanthroline) [7]
Oc1ccccc1O [Catechol] | 56% | most active compound | highest activities | 10^5 | 5.5 pH | rapidly cleared | Conversion of HPF to fluorescein occurs | stable in solution | 
NGAL: Neutrophil Gelatinase Associated Lipocalin, recombinant protein (protein, UniProt P80188 21-198, looked up) Neutrophil …: QDSTSDLIPAPPLSKVPLQQNFQDNQFQGKWYVVGLAGNAILREDKDPQKMYATIYELKEDKSYNVTSVLFRKKKCDYWIRTFVPGCQPGEFTLGNIKSYPGLTSYLVRVVSTNYNQHAMVFFKKVSQNREYFKITLYGRTKELTSELKENFIRFSKSLGLPENHIVFPVPIDQCIDG |  |  |  |  |  |  | blocked the reaction |  | blocked the reaction

Source: patent US20110268818A1, “NGAL-BINDING SIDEROPHORES AND USE THEREOF TO TREAT IRON DEFICIENCY AND IRON OVERLOAD” (priority 2008, published 2011)
